The values below come from patent publication US8658642B2 (Axikin Pharmaceuticals, Inc., priority 2009, dated 2014).

The target in this assay is T1, CCR3 (Homo sapiens, UniProt P51677).
T1 sequence (P51677 1-355): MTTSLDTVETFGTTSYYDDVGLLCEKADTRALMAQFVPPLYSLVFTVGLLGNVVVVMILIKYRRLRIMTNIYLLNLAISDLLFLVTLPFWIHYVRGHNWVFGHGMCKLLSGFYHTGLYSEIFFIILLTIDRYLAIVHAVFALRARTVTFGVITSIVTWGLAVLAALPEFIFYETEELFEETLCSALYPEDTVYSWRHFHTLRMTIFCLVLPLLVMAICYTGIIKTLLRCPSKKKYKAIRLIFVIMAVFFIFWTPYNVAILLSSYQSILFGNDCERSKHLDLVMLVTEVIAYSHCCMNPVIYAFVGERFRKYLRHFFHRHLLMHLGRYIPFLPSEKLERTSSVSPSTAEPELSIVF
As to the kind of experiment: CCR3 receptor binding assay ([125I]-labeled human eotaxin/CCL11 displacement on cells). To be noted: 0.1 nM [125I]-labeled human eotaxin/CCL11, 2×10^5 cells/well, 60 min at room temperature. The method, then: CCR3 Receptor Binding Assay
Cells were washed once with PBS and resuspended in a binding buffer (25 mM HEPES pH 7.6, 5 mM MgCl2, 1 mM CaCl2, 0.5% BSA, 0.1% NaN3). […] of cell suspension (2×10^5 cells/well) and 0.1 nM [^125I]-labeled human eotaxin/CCL11 (2000 Ci/mmol specific activity) were mixed in a 96-well U-bottom polypropylene plate, and incubated for 60 min at room temperature for the binding reaction. The cell suspension was then transferred to a filtration plate (#MAFB, Millipore), and washed 3 times with the binding buffer containing 0.5 M NaCl, scintillant added, and the radioactivity was counted on a TopCount (Packard). For the determination of non-specific binding, the cell suspension and [^125I]-labeled human eotaxin/CCL11 were incubated in the presence of 500 nM of unlabeled human eotaxin/CCL11. See, lino et al., “Molecular cloning and functional characterization of cynomolgus monkey (Macaca fascicularis) CC chemokine receptor, CCR3,” Cytokine 2002, 19, 276-286.
The Ki is a measure of affinity in units of concentration, obtained from inhibition or displacement. Read a low Ki as a stronger hold on the target. With `N#Cc1ccc(Oc2cc(Cl)cc(Cl)c2)c(S(=O)(=O)N2CCN(C(=O)NCCCl)CC2)c1` [Compound 142], the inhibitory constant (Ki) lay in the range of 0.05 to 0.5 µM.
With `CSCCCNC(=S)N1CCN(S(=O)(=O)c2cc(C#N)ccc2Oc2cc(Cl)cc(Cl)c2)CC1` [Compound 146], the inhibition constant Ki was ≤ 0.05 µM.
The value for `N#Cc1ccc(Oc2cc(Cl)cc(Cl)c2)c(S(=O)(=O)N2CCN(C(=S)NC(=O)/C=C/c3ccccc3)CC2)c1` [Compound 147] was > 5 µM.
As to `N#Cc1ccc(Oc2cc(Cl)cc(Cl)c2)c(S(=O)(=O)N2CCN(C(=O)c3ccno3)CC2)c1` [Compound 124], the inhibition constant Ki was in the range of 0.05 to 0.5 µM.
Turning to `C=CCOC(=O)N1CCN(S(=O)(=O)c2cc(C#N)ccc2Oc2cc(Cl)cc(Cl)c2)CC1` [Compound 159], the Ki is > 5 µM.
As for `CCN(CC)C(=O)N1CCN(S(=O)(=O)c2cc(C#N)ccc2Oc2cc(C)cc(C)c2)CC1` [Compound 120], the figure is > 5 µM; as for `N#Cc1ccc(Oc2cc(Cl)cc(Cl)c2)c(S(=O)(=O)N2CCN(C(=O)NCc3ccccc3)CC2)c1` [Compound 97], 0.05 to 0.5 µM.
The value for `Cc1cc(C)cc(Sc2ccc(C#N)cc2S(=O)(=O)N2CCN(C(=O)c3ccccc3C)CC2)c1` [Compound 92, 4-(3,5-Dimethylphenylthio)-3-(4-(2-methylbenzoyl)piperazin-1-ylsulfonyl)benzonitrile] was > 5 µM.
Take `Cc1cc(C)cc(Oc2ccc(C#N)cc2S(=O)(=O)N2CCN(C(=O)C3CCCC3)CC2)c1` [Compound 68, 3-(4-(Cyclopentanecarbonyl)piperazin-1-ylsulfonyl)-4-(3,5-dimethylphenoxy)benzonitrile]: the inhibition constant (Ki) was > 5 µM.
The value for `Cc1ccc(C)c(Sc2ccc([N+](=O)[O-])cc2S(=O)(=O)N2CCN(C(=O)c3ccc(Cl)cc3)CC2)c1` [Compound 173, (4-Chlorophenyl)(4-(2-(2,5-dimethylphenylthio)-5-nitrophenylsulfonyl)-piperazin-1-yl)methanone] was > 5 µM; that for `Cc1cc(C)cc(Oc2ccc(C#N)cc2S(=O)(=O)N2CCN(S(=O)(=O)c3ccc(C(F)(F)F)cc3)CC2)c1` [Compound 60, 4-(3,5-dimethylphenoxy)-3-(4-(4-(trifluoromethyl)phenylsulfonyl)piperazin-1-ylsulfonyl)benzonitrile] was > 5 µM; that for `N#Cc1ccc(Oc2cc(Cl)cc(Cl)c2)c(S(=O)(=O)N2CCN(C(=O)Oc3ccc([N+](=O)[O-])cc3)CC2)c1` [Compound 155] was > 5 µM.
Take `Cc1cc(C)cc(Sc2ccc(C#N)cc2S(=O)(=O)N2CCN(C(=O)c3ccc(C(F)(F)F)cc3)CC2)c1` [Compound 88, 4-(3,5-Dimethylphenylthio)-3-(4-(4-(trifluoromethyl)benzoyl)piperazin-1-ylsulfonyl)benzonitrile]: the inhibition constant Ki was > 5 µM.
For the molecule `CC(C)C(=O)N1CCN(S(=O)(=O)c2cc(C#N)ccc2Oc2cc(Cl)cc(Cl)c2)CC1` [Compound 110], the inhibition constant (Ki) was ≤ 0.05 µM.
As for `Cc1cc(C)cc(Oc2ccc(C#N)cc2S(=O)(=O)N2CCN(C(=O)C(C)C)CC2)c1` [Compound 108], the Ki is > 5 µM.
In the case of `N#Cc1ccc(NC(=O)N2CCN(S(=O)(=O)c3cc([N+](=O)[O-])ccc3Sc3cc(Cl)ccc3Cl)CC2)cc1` [Compound 194, N-(4-Cyanophenyl)-4-(2-(2,5-dichlorophenylthio)-5-nitrophenylsulfonyl)-piperazine-1-carboxamide], the inhibition constant Ki was > 5 µM.
Turning to `CC(C)(C)CC(=O)N1CCN(S(=O)(=O)c2cc(C#N)ccc2Oc2cc(Cl)cc(Cl)c2)CC1` [Compound 71, 4-(3,5-Dichlorophenoxy)-3-(4-(3,3-dimethylbutanoyl)piperazin-1-ylsulfonyl)benzonitrile], the inhibitory constant (Ki) was > 5 µM.
For the molecule `CC(=O)N1CCN(S(=O)(=O)c2cc(C#N)ccc2Sc2cc(Cl)cc(Cl)c2)CC1` [Compound 111], the inhibition constant (Ki) was ≤ 0.05 µM.
The value for `Cc1cc(C)cc(Oc2ccc(C#N)cc2S(=O)(=O)N2CCN(C(=O)C3CCCCC3)CC2)c1` [Compound 65, 3-(4-(Cyclohexanecarbonyl)piperazin-1-ylsulfonyl)-4-(3,5-dimethylphenoxy)benzonitrile] was > 5 µM.
As for `N#Cc1ccc(Oc2cc(Cl)cc(Cl)c2)c(S(=O)(=O)N2CCN(C(=O)c3ccccc3Cl)CC2)c1` [Compound 84, 3-(4-(2-Chlorobenzoyl)piperazin-1-ylsulfonyl)-4-(3,5-dichlorophenoxy)benzonitrile], the figure is 0.5 to 5 µM.
Take `Cc1ccc(S(=O)(=O)N2CCN(S(=O)(=O)c3cc(C#N)ccc3Oc3cc(C)cc(C)c3)CC2)cc1` [Compound 53, 4-(3,5-Dimethylphenoxy)-3-(4-tosylpiperazin-1-ylsulfonyl)benzonitrile]: the Ki is > 5 µM.
For the molecule `O=C(C1CCCCC1)N1CCN(S(=O)(=O)c2cc([N+](=O)[O-])ccc2Sc2cc(Cl)ccc2Cl)CC1` [Compound 162, Cyclohexyl(4-(2-(2,5-dichlorophenylthio)-5-nitrophenylsulfonyl)piperazin-1-yl)methanone], the inhibition constant (Ki) is > 5 µM.
The value for `O=C(Nc1ccc([N+](=O)[O-])cc1)N1CCN(S(=O)(=O)c2cc([N+](=O)[O-])ccc2Sc2cc(Cl)ccc2Cl)CC1` [Compound 195, 4-(2-(2,5-Dichlorophenylthio)-5-nitrophenylsulfonyl)-N-(4-nitrophenyl)-piperazine-1-carboxamide] was > 5 µM.
The value for `Cc1cc(C)cc(Oc2ccc(C#N)cc2S(=O)(=O)N2CCN(C(=O)c3ccccc3)CC2)c1` [Compound 55, 3-(4-Benzoylpiperazin-1-ylsulfonyl)-4-(3,5-dimethylphenoxy)benzonitrile] was > 5 µM; that for `Cc1cc(C(=O)N2CCN(S(=O)(=O)c3cc(C#N)ccc3Oc3cc(Cl)cc(Cl)c3)CC2)n(C)n1` [Compound 126] was > 5 µM; that for `Cc1nnsc1C(=O)N1CCN(S(=O)(=O)c2cc(C#N)ccc2Oc2cc(Cl)cc(Cl)c2)CC1` [Compound 127] was ≤ 0.05 µM.
Take `N#Cc1ccc(Oc2cc(Cl)cc(Cl)c2)c(S(=O)(=O)N2CCN(C(=O)c3ccc(C(F)(F)F)cc3)CC2)c1` [Compound 69, 4-(3,5-Dichlorophenoxy)-3-(4-(4-(trifluoromethyl)benzoyl)piperazin-1-ylsulfonyl)benzonitrile]: the inhibition constant (Ki) was > 5 µM.
As for `Cc1cc(C)cc(Oc2ccc(C#N)cc2S(=O)(=O)N2CCN(S(=O)(=O)CC34CCC(CC3=O)C4(C)C)CC2)c1` (stereo not drawn) [Compound 51], the inhibition constant (Ki) is > 5 µM.
Regarding `CCOC(=O)CCNC(=S)N1CCN(S(=O)(=O)c2cc([N+](=O)[O-])ccc2Sc2cc(Cl)ccc2Cl)CC1` [Compound 198], the Ki is ≤ 0.05 µM.
`CC(C)NC(=S)N1CCN(S(=O)(=O)c2cc(C#N)ccc2Oc2cc(Cl)cc(Cl)c2)CC1` [Compound 95] showed a Ki of 0.05 to 0.5 µM.
`Cc1cc(C)cc(Sc2ccc(C#N)cc2S(=O)(=O)N2CCN(C(=O)Nc3cccc(F)c3)CC2)c1` [Compound 93] returned an inhibitory constant (Ki) of 0.05 to 0.5 µM.
Consider `N#Cc1ccc(Oc2cc(Cl)cc(Cl)c2)c(S(=O)(=O)N2CCN(C(=O)Oc3ccccc3)CC2)c1` [Compound 96], for which the Ki lay within 0.5 to 5 µM.
In the case of `CCC(=O)N1CCN(S(=O)(=O)c2cc(C#N)ccc2Oc2cc(C)cc(C)c2)CC1` [Compound 57, 4-(3,5-dimethylphenoxy)-3-(4-propionylpiperazin-1-ylsulfonyl)benzonitrile], the Ki was 0.5 to 5 µM.
